Reference: patent US20180085371A1, “COMBINATION OF PANOBINOSTAT AND RUXOLITINIB IN THE TREATMENT OF CANCER SUCH AS A MYELOPROLIFERATIVE NEOPLASM” (Novartis AG, priority 2011, published 2018)
Values joined by “and” are separate entries in the source; they are usually repeats but may differ in a detail not shown here. Equal entries are not always repeated.

What was measured:
[1] = system: Ba/F3 EpoR JAK2V617F-luc clone 8 cells; assay: Ba/F3 EpoR JAK2V617F-luc cells-driven leukemic disease mouse model, Xenogen bioluminescence; type: in vivo; conditions: for Fractional change in Biolux: biolux last day/first day, mean; for T/C last day (%): (treated/control)·100
Method: A study is conducted to test the efficacy of the combination of Compound A and Compound B in Scid-beige mice injected i.v. (tail vein) with 1·10^6 Ba/F3 EpoR JAK2V617F-luc clone 8 cells.
• 80 Scid-beige female mice, 18-22 g (8 groups of 7 mice, 24 excluded at time of randomization) • Cells: Ba/F3 EpoR JAK2V617F-luc clone 8 cells. • Whole body Xenogen imaging was performed on days 4, 7, 9 and 11 after cell injection. Randomization of animals into treatment groups was based on bioluminescence (BioL) on day 4 after cell injection. • The mouse model and the protocol is described by Baffert et al., Mol. Cancer Ther; 9(7), 1945, July 2010. Animal and Cell line: • Cell line: Ba/F3EpoR JAK2V617F-luc clone 8 • Gene: JAK2V617F • Cell-Nr./Injection site: 1×10e6 cells in 200 ul/tail i.v. injection • Species: mouse • Strain: CB17/C.B-Igh-l^b/GbmsTac-Prkdc^scid-lyst^bgN7, Taconic farms (complete name Taconic) • Gender: female • Age: […] • Number: 80 mice
Ba/F3 EpoR JAK2V617F-luc cells are grown in RPMI1640 supplemented with 10% FCS, 1% Glutamine, Puromycin (1 ug/mL) and Hygromycin (100 ug/mL). Cells are splited every three days (1:50) not more than two weeks before experiment. The day prior the injection, cells are grown without any antibiotics (to avoid any potential delay in cell growth in vivo).
The day of injection the cells are harvested and resuspended in HBSS buffer (10e6 cells in 200 ul). Cells are injected in tail vein using 27G tuberculin syringe. […]
Bioluminescence are recorded using the Xenogen Camera (non invasive IVIS® Imaging system, Caliper) on day 4, day 7 and 10 post cell injection under isofluran anesthesia (3-5% vol isofluran, 0.8 L/min air flow). Animals are injected i.p. with D-luciferin (Xenogen corporation, ref XR-1001), at 150 mg/kg (10 ml/kg, Nacl). Anesthetized mice are then placed in the imaging chamber for imaging 15 minutes after the luciferin injection.
Animals are randomized on day 4 and treatment started for at least 6 days based on well being of vehicle treated animals.

[2] = system: JAK2V617F bone marrow transduced cells; assay: Histology of bone marrow and spleen (cellularity, splenic architecture, reticulin fibrosis) in JAK2V617F bone marrow transplant model; type: in vivo, mouse; conditions: 21 days; for Bone marrow hypercellularity / Splenic architecture: Compound B 8 mg/kg, Compound A 60 mg/kg or both; for Bone marrow hypercellularity: rank Combo>Compound A=Compound B; for Splenic architecture: rank Combo>Compound A>Compound B
Text: and spleens were collected, fixed in formalin, trimmed, embedded in paraffin and sectioned at (nominally) 4 μm using a microtome. […] Briefly, the spleen was removed in total, weighed and placed on a dissection tray. The spleen was cut transverse in two halves and two equal pieces were taken from the middle parts using a scalpel. […] Baker, Medite, Switzerland). Fixative volume was at least tenfold in excess compared to tissue volume. […] After a last wash in PBS, the tissues were cut up and set with the surface of interest downwards in a universal histocassette followed by processing in a TPC 15Duo (Tissue Processing Center) for paraffinization. From each tissue paraffin block, several 3 μm thick sections were cut on a sliding or rotary microtome (Mikrom International AG, Switzerland), spread in a 45° C. water-bath, mounted on microscope slides (Polysine, VWR International, Leuven, Belgium), and air-dried in an oven at 37° C. overnight. Dry tissue section slides were taken out of the oven and placed in the slide rack of the linear stainer COT20 (Medite, Switzerland) for fully automated H&E (Haematoxylin &Eosin) staining or processed for immunohistochemistry (IHC) staining. For IHC, tissue section samples were stained with rabbit anti-phospho STAT5 antibody (clone C11C5), and rabbit anti-acetyl Histone H3 antibody (Millipore, MA, USA) coverslipped and air-dried. […] Splenic architecture was evaluated as destroyed (1+) or preserved (0). Presence of myeloid, erythroid and adipocytes cells was evaluated as 0, 1+, 2+, 3+ based on cellularity. […] Whole slide automated quantitative assessment of p-STAT5-positive and -negative cell nuclei were performed using Definiens eCognition software (eCognition version XD 1.5, Definiens AG, Germany). The results were expressed as percent of positive p-STAT5 nuclei out of total nuclei.

[3] = Stability of dosing solution at room temperature; type: physicochemical
Method: Compound B was administered as the lactate salt by intraveneous or intraperitoneal injection. The lactic salt of Compound B was formulated in isotonic D5W (5% Dextrose; B. Braun, Lot 395147) at a concentration of 1.5 mg/ml, 1 mg/ml and 0.5 mg/ml, respectively. The solution was stable for up to 10 days at room temperature. Treatment was given 3 times a week at a volume of 10 ml/kg. The final equivalent free-base doses were respectively 11.90, 7.94 and 3.97 mg/kg. In the figures, these doses are reported as whole values.
The mono-phosphate salt of Compound A was formulated in 0.5% HPMC (Pharmacoat 603, Dow Chemical Plaqueline, USA) at a concentration of 7.9 mg/ml. Solution was stable at room temperature for 4 days. Treatment was given bid at a volume of 10 ml/kg. The final equivalent free-base dose was 60 mg/kg.

[4] = Body weight change in JAK2V617F bone marrow transplant model; conditions: sacrifice day after 21 days; Compound B 8 mg/kg ip 3 times a week, Compound A 60 mg/kg po q12h, or Combo of both
Method: (§1) Animals were monitored daily and sacrificed in case of major signs of distress (excessive body weight loss over more than 2 consecutive days without improvement, combined with lethargy and piloerection).
Results shown in the figures and tables represent means±SEM. Percentage change in body weights and absolute values or transformed values (log10, or other as specified) for spleen weights, reticulocyte, WBC counts, Hct and histological data were analyzed by unpaired t-test or Rank-Sum test to compare a single treatment group to vehicle group or one way ANOVA followed by Dunnett's test to compare treatment groups to vehicle group. Multiple comparisons were done using the Tukey's test. All comparisons were done on sacrifice day. The significance level was set to p<0.05. Calculations were performed using GraphPad Prism for Windows (GraphPad Software Inc.).
(§2) Mice were randomized on day 27 post BMT based on Hct values (67% in average in this experiment, N=9/group) and treated with Compound B (8 mg/kg, 3×/week MWF, i.p.) and Compound A (60 mg/kg, q12h, p.o.) as single agents or combined.

[5] = system: JAK2V617F bone marrow transduced cells; assay: JAK2V617F bone marrow transplant model of polycythemia vera-like disease (spleen weight, blood counts, GFP-positive cells)
Method: Briefly, Balb/c donor mice (6-8 weeks, Charles River, males or females) were treated 5 days prior BM transplant with 5-fluorouracil (150 mg/kg, i.p., Sigma-Aldrich, cat #F6627). Bone marrow cells from donor mice were harvested by flushing femurs and tibias. After red cell lysis (StemCellTechnologies, Grenoble, France, cat #07800), nucleated cells were cultured for 24 hours in transplant medium (RPMI+10% FCS+25 ng/ml IL3 (R&D Systems, Abington, UK, cat #403-ML), 25 ng/ml IL6 (R&D Systems cat #406-ML), and 50 ng/ml Stem Cell Factor (SC F, Bioconcept, Allschwill, Switzerland, cat #D-63120). The next day, cells were plated at 2×10^6cells/ml/well in 6 well plates in the presence of 1 mL of supernatant containing virions from 293T transfected with 10 μg of p-MSCV-JAK2V617F-IRES-GFP vector (modification of original vector p-MSCV vector purchased from Clontech) and 10 μg of pCL-ECO vector (Imgenex, cat #10045P). After two spin-infections (2500 rpm for 90 min at 32° C., Multifuge 1S-R, Heraeus) unselected infected BM cells were resuspended in Hank's balanced salt solution (HBSS) before cell injection (1-3×10^6 depending on infection rate) into the tail vein of lethally irradiated Balb/c female recipient mice (total 9 Gy or 7 Gy) given as two 4.5 or 3.5 Gy doses 4 hours apart) using a BIOBEAM 8000, gamma irradiator (BEBIG GmbH, Germany).
as §1
Blood was drawn from the tail vein or at sacrifice from the vena cava with a 20 G needle under isoflurane anesthesia (terminal procedure) and analyzed using an automated complete and differential blood cell counter (capillary mode using dilution 1:5 on a Sysmex blood analyzer, XT2000iV, Sysmex Digitana AG, Norderstedt, Germany). Spleens were weighed to evaluate splenomegaly. Blood, spleens, sterna, and livers were collected for pharmacokinetic, pharmacodynamic.
Ten microliters of whole blood were used to detect circulating GFP-positive cells. Briefly, blood was distributed into a 96-well round bottom plate (Costar, cat #3795) and red blood cells (RBC) were lysed with 200 μl of red blood cell lysis buffer (Sigma, cat #R-7757). After an incubation period of 7 min. in the dark on a plate agitator, cells were centrifuged (5 min., 300 g) and the supernatant discarded by inversion of the plate. After 3 washing steps in FACS buffer (phosphate buffered saline (D-PBS), 3% FBS and 0.02% sodium azide), nucleated cells were resuspended in 200 μl of cold FACS buffer and processed for GFP detection using a LSRII flow cytometer (BD Biosciences, Heidelberg, Germany).
as §2

[6] = sacrifice day after 21 days, Compound B 8 mg/kg ip, Compound A 60 mg/kg po q12h, or Combo
[7] = Compound A 60 mg/kg po twice a day

SMILES	Fractional change in Biolux ([1]; Compound B 4 mg/kg ip M/W/F (free-base equivalent))	T/C last day (%) ([1]; Compound B 4 mg/kg ip M/W/F)	T/C last day (%) ([1]; Compound B 8 mg/kg ip M/W/F)	Fractional change in Biolux ([1]; Compound B 8 mg/kg ip M/W/F)	T/C last day (%) ([1]; Compound B 12 mg/kg ip M/W/F)	Fractional change in Biolux ([1]; Compound B 12 mg/kg ip M/W/F)	Bone marrow hypercellularity [2]	Splenic architecture [2]	Stability of solution at room temperature ([3]; lactic salt in isotonic D5W (5% Dextrose), 0.5-1.5 mg/ml)	BW change (%) (mean ± SEM) [4]	Hct (%) (mean ± SEM) [5, 6]	Retic counts (×10^12/L) (mean ± SEM) [5, 6]	T/C last day (%) [1, 7] [%]	Fractional change in Biolux [1, 7]	Fibrosis score (reticulin staining on sternum sections) ([2]; Compound A 60 mg/kg or combination with Compound B 8 mg/kg, high variability)	Stability of solution at room temperature ([3]; mono-phosphate salt in 0.5% HPMC, 7.9 mg/ml) [days]	PLT (×10^9/L) (mean ± SEM) [5, 6]	WBC (×10^9/L) (mean ± SEM) ([5]; sacrifice day after 21 days, Compound B 8 mg/kg ip, Compound A 60 mg/kg po q12h, or Combo, all values)	GFP positive circulating cells (%) ([5]; sacrifice day after 21 days, allele burden surrogate, Compound B 8 mg/kg ip, Compound A 60 mg/kg po q12h, or Combo)	WBC (×10^9/L), mean without outlier ([5]; sacrifice day, Compound A 60 mg/kg po q12h, value between brackets, 1 outlier excluded)
Cc1[nH]c2ccccc2c1CCNCc1ccc(/C=C/C(=O)NO)cc1 [Compound B, N-hydroxy-3-[4-[[[2-(2-methyl-1H-indol-3-yl)-ethyl]-amino]methyl]phenyl]-2E-2-propenamide]	481	27	20	351	11	204	decrease	improved	up to 10 days	−5% and −4.57%	52.2	0.24 ×10^12/L								
N#CC[C@H](C1CCCC1)n1cc(-c2ncnc3[nH]ccc23)cn1 [Compound A, (R)-3-(4-(7H-pyrrolo[2,3-d]pyrimidin-4-yl)-1H-pyrazol-1-yl)-3-cyclopentylpropanenitrile]							decrease	improved		0.45%	59.4	0.42 ×10^12/L	40	717	tendency to reduce	4	695.9 ×10^9/L	22.2 ×10^9/L	34.0	(7.46 ×10^9/L
